Reference: PMC10987496, “Activity-stability trade-off observed in variants at position 315 of the GH10 xylanase XynR” (Scientific Reports, 2024)

Target: T1, XynR (WT) (Halalkalibacterium halodurans, UniProt P07528)
T1 construct: gene xynA; pET-21b(+)-XynR expressed in E. coli BL21(DE3), purified on HisTrap (His-tagged); residues 2-359 modelled in 2 chains; catalytic E150/E256
Test: X-ray crystallography, […] A (co-crystallisation and soaking)
Type: binding
Details: 0.35 M xylobiose, Tris-HCl pH 8.0 mixed with reservoir pH 4.6 (0.02 M CaCl2, acetate, MPD), 20 °C; active site, subsites +1 and +2

T1 sequence (P07528 46-396): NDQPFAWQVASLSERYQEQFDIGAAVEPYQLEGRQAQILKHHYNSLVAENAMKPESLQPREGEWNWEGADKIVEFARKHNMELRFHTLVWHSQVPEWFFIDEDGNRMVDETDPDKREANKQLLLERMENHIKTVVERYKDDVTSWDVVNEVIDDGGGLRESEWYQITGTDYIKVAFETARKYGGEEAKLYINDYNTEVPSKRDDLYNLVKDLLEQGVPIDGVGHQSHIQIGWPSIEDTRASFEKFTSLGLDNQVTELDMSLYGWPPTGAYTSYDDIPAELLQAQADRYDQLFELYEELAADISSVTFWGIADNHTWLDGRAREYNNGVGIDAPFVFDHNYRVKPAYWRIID

## OC1OC[C@@H](O[C@@H]2OC[C@@H](O)[C@H](O)[C@H]2O)[C@H](O)[C@H]1O (stereo partly shown) [xylobiose]
  X-ray crystallography, 1.80 A (co-crystallisation and soaking): we made crystallographic analysis of WT complexed with xylobiose
